# Reference: patent US7369696B2, “Classification of cells into subpopulations using cell classifying data” (GE Healthcare UK Limited, priority 2003, dated 2008)
# System: U2OS cells (ATCC HTB-96) transfected with cyclin B1 promoter/D-box/CRS-GFP cell cycle reporter construct
# Assay: Effect of cell cycle blocking agents on GFP fluorescence from cell cycle phase marker, transiently transfected cells
# Type: cell-based
# Conditions: U2OS cells 24 hours after transfection, exposed to blocker for a further 24 hours; confocal scanning imager with automated image analysis; control = culture media alone
# Description: U2OS cells (ATCC HTB-96) were cultured in wells of a 96 well microtitre plate. Cells were transfected with a cell cycle reporter construct prepared according to Example 1, comprising a cyclin B1 promoter operably linked to sequences encoding the cyclin B1 D-box, the cyclin B1 CRS, and GFP in a pCORON4004 vector (Amersham Biosciences) using Fugene 6 (Roche) as the transfection agent.
# Following 24 hours of culture, cells were exposed to the specific cell cycle blockers mimosine (blocks at G1/S phase boundary) or demecolcine (blocks in M phase). Control cells were exposed to culture media alone.
# Cells were incubated for a further 24 hours and then analysed for nuclear GFP expression using a confocal scanning imager with automated image analysis (IN Cell Analysis System, Amersham Biosciences).
row,Structure (SMILES),nuclear GFP expression (fluorescence) compared to control cells
1,NC(Cn1ccc(=O)c(O)c1)C(=O)O (centres unmarked) [mimosine],decreased fluorescence compared to control cells
2,CN[C@H]1CCc2cc(OC)c(OC)c(OC)c2-c2ccc(OC)c(=O)cc21 [demecolcine],increased fluorescence compared to control cells
